A value given as a limit tells only on which side of the number the result lay.

What is called melting point is the temperature, or range, at which the solid turns liquid. On to `COC(=O)c1ccccc1S(=O)(=O)NC(=O)Nc1nc(COc2ccccc2)cc(OC)n1`, for which the melting point fell in the range of 178 to 180 °C. For the compound `CC(C)(C)NCC(O)c1ccc(N)c(C(F)(F)F)c1` (configuration not stated), the melting point lay within 145 to 147 °C. For `CCOc1ccc2[nH]c(=O)n(CCN(C(C)C)C(C)C)c2c1` the value was 89 °C; for `COc1ccc(-c2nc(Sc3ccccc3)n(Cc3ccccc3)c2-c2ccc(OC)cc2)cc1`, 113 to 115 °C; for `O=CC=CC(=C(c1ccc(F)cc1)c1ccc(F)cc1)c1nnn(C(c2ccccc2)(c2ccccc2)c2ccccc2)n1`, 122 to 124 °C. `CC(C)N(C(C)C)S(=O)(=O)N[C@@H](Cc1ccc(Oc2nccc3cnccc23)cc1)C(=O)O` yielded a melting point of 112 °C. `O=C(OCCS(=O)(=O)Cc1ccccc1)c1cc(Oc2ccc(C(F)(F)F)cc2Cl)ccc1[N+](=O)[O-]`: the melting point came to 105 °C.

In turn, `N#CC(c1ccc(Cl)cc1)c1ccc(-n2ncc(=O)[nH]c2=O)cc1Cl` (configuration not stated) came in with a melting point of 197 °C. Regarding `O=c1cc(C(F)(F)F)nc(Nc2cc(C(F)(F)F)ccc2C(F)(F)F)n1C1CCCCC1`, the melting point lay within 154 to 156 °C.

The compound `O=C(Nc1cc(O)c(Cl)cc1O)c1ccc(O)c(F)c1` had a melting point of 254 to 256 °C.

The compound `O=C1OC(Cc2ccccc2)CN1Cc1ccccc1` (configuration not stated) registered a melting point of 81 to 82 °C. Consider `Oc1cc(CBr)c2oc(-c3ccc(O)c(F)c3)cc2c1`, for which the melting point is 269 to 271 °C. In turn, `COCNC(=O)NC1CC(C)(C)N(C)C(C)(C)C1` registered a melting point of 105 °C. In turn, `CC(=O)O[C@@H]1[C@@H](OC(C)=O)[C@H](C)O[C@@H](OC[C@H]2O[C@H](Br)[C@H](OC(C)=O)[C@@H](OC(C)=O)[C@@H]2OC(C)=O)[C@@H]1OC(C)=O` returned a melting point of 120 to 125 °C.

Consider `CCOC(CNc1nc2ccccc2[nH]1)OCC`, for which the melting point lay in the range of 117 to 121 °C.

As to `CC(C)n1c(=O)sc2cc(N)ccc21`, the melting point was in the range of 146 to 148 °C. For `CCCCC(=O)c1c(-c2ccc3cc(OC(Cc4ccccc4)C(=O)O)ccc3c2)oc2ccccc12` (configuration not stated) the value was 144 to 145 °C; for `CC(C)CCNC(=O)c1c(N)cc(Cl)cc1Cl`, 148 to 150 °C.

`COc1ccc2c(c1)CN(Cc1c[nH]c3ccccc13)C2` had a melting point of 178 to 180 °C. Under `Oc1cc(Cl)nc(Cl)c1` stands 201 to 202 °C; under `Cc1cc(CCC(=O)O)nc(-c2nc(=O)c3ccccc3s2)c1`, 245 to 246 °C. As for `COCCOc1cc(C(O)C#Cc2ccc(C(=O)O)cc2)cc2c1C(C)(C)CCC2(C)C` (configuration not stated), the melting point was determined as 150 °C. In turn, `CC(C)(Cc1c[nH]c2ccccc12)NC[C@H](O)CO` registered a melting point of 77 to 77.8 °C. Compound `CC1(CC(=O)O)OCCC2=C1Cc1ccccc12` (configuration not stated) came in with a melting point of 179 to 180 °C. For `COc1ccc2c(c1)C(O)(c1ccccn1)CC(C)(C)CO2` (configuration not stated), the melting point was 98 °C. `CC1(C)C(=O)C(c2ccc(S(C)(=O)=O)cc2)=C1c1ccc(S(C)(=O)=O)cc1` returned a melting point of 212 °C. Turning to `O=C1CN(Cc2ccccc2)C(=S)N1`, the melting point lay within 150 to 152 °C. `C=CCc1ccccc1OCC(O)CNCCc1ccc(NC2CCN(S(=O)(=O)c3ccc(NC(=O)NCCCCCC)cc3)CC2)cc1` (configuration not stated) gave a melting point of 68 to 70 °C. For `O=C1c2ccccc2-c2c1c1ccccc1c(=O)n2CCCl` the value was 210 to 212 °C.

For the compound `Cc1c(-n2cnc3c(-c4ccccc4)cc(F)cc32)nc2ccc(F)cc2c1C(=O)O`, the melting point is 208 to 210 °C. For `OCc1cccnc1Oc1ccc(F)cc1` the value was 70 to 72 °C; for `CCOC(=O)c1cnc(-c2cccs2)s1`, 61 to 62 °C; for `CC(C)CC1(CC(=O)NO)CCN(CCc2ccccc2)C1=O` (configuration not stated), 123 to 124 °C. The compound `CC(=O)N(C(C)=O)c1cscn1` came in with a melting point of 55 °C. For the compound `CCOc1c(Br)ccc(C(=O)OC)c1N(C)S(C)(=O)=O`, the melting point was in the range of 82 to 88 °C. For the compound `CCOC(=N)C(O)c1sccc1C` (configuration not stated), the melting point was 73 to 76 °C. `COC(=O)C1=C(C)NC(C)=C(C(=O)OCC2CCCO2)C1c1cccc(F)c1` (configuration not stated) yielded a melting point of 66 to 68 °C.

As for `CC(C)(C)OC(=O)NCc1nnc(S)s1`, the melting point is 144 to 146 °C. Regarding `O=C(O)Cc1ccc2c(c1)CCc1ccccc1O2`, the melting point was in the range of 135 to 137 °C.

As for `CC(=O)N[C@H]1CC[C@H](CCN2CCN(c3ncc(C)c4occc34)CC2)CC1`, the melting point worked out at 208 °C.

As to `CN1CN(C(=O)c2c(F)cccc2F)C(=O)N(c2ccc(S(=O)(=O)C(F)F)cc2F)C1`, the melting point was 203 to 205 °C.

In the case of `CCOC(=O)C1=C[C@@H](OC(CC)CC)[C@H](NC(C)=O)[C@H](O)C1`, the melting point was 129 to 131 °C. For the compound `O=C1CCN(Cc2ccccc2)CC1=C(c1ccccc1)c1ccccc1`, the melting point lay in the range of 135 to 137 °C. In turn, `O=C(O)c1cc([N+](=O)[O-])ccc1C(=O)c1ccccc1` showed a melting point of 176 to 179 °C.

In the case of `O=C(C=Cc1ccccc1O)OCCc1ccccc1`, the melting point was determined as 40 °C. Consider `CC(C#N)c1cc([N+](=O)[O-])ccc1F` (configuration not stated), for which the melting point fell in the range of 55 to 56 °C. As to `COc1ccc(-c2cc(-c3c(-c4cccc(C)n4)nc4ccccn34)ccn2)cc1`, the melting point stood at 174 °C. In turn, `Cc1cc(OC(=O)N(C)C)nc(C(Cl)(Cl)Cl)n1` registered a melting point of 83.5 to 84.5 °C. In turn, `Fc1cccc(C2OC3(CCN(Cc4ccccc4)CC3)N3CCCCC23)c1` (configuration not stated) gave a melting point of 113 to 115 °C.

`O=C(COc1ccc(Cl)cc1Cl)OCCOC(=O)c1cc(Oc2ccc(C(F)(F)F)cc2Cl)ccc1[N+](=O)[O-]` yielded a melting point of 111 to 118 °C. On to `Cc1nn(CCc2ccccc2)cc1C(=O)Nc1ccc(N2CCC(N3CCOCC3)CC2)c(C#N)c1`, for which the melting point is 188 °C. Under `CCc1nc(NC(=S)NCCc2ccccc2Oc2ccccc2)cs1` stands 168 °C; under `[N-]=[N+]=Nc1ccc(S(=O)(=O)NCCc2ccc(CCO)cc2)cc1`, 80 to 82 °C. Regarding `Cn1c2ccccc2c2cc(C(=O)C(C)(C)N3CCOCC3)ccc21`, the melting point lay in the range of 164 to 166 °C. `C=CCON=C(CCC)C1=C(O)CC(c2ccc(C(=O)SCC)cc2)CC1=O` (configuration not stated) yielded a melting point of 72 to 75 °C. Under `Cc1cc([N+](=O)[O-])c(C)nc1O` stands 263 °C; under `O=C(CC(=O)c1ccccc1)Nc1ccccc1NC(=O)CC(=O)c1ccccc1`, 202 to 204 °C; under `Nc1ccc2ccc(-c3ccccc3Cl)nc2n1`, 193 °C.

Consider `COc1ccc(C(=O)Oc2ccc(C(=O)O)c(C)c2)cc1C12CC3CC(CC(C3)C1)C2`, for which the melting point was 236 to 237 °C.

On to `COC(=O)C1=C(C)NC(C)=C(C(=O)OC)C1c1cc([N+](=O)[O-])ccc1OCCCCNCC(O)COc1ccccc1` (configuration not stated), for which the melting point is 131 to 133 °C. Take `CNC(=O)[C@@H]1CSCc2c(O)cc(O)c(C)c2C(=O)OC[C@H](O)C(=O)N1`: the melting point was determined as 275 °C. `O=C(O)C1Cc2cc3c(-c4ccccc4Cl)noc3c(Cl)c2O1` (configuration not stated) showed a melting point of 224 to 225 °C. Compound `CCOC(=O)Cc1ccc(C(=O)c2ccc([N+](=O)[O-])cc2)n1C` showed a melting point of 103 to 106 °C. Compound `Cc1cc(CC#N)cc(CC#N)c1` yielded a melting point of 75 to 78 °C.

In the case of `O=C1c2c(OCc3ccccc3)cccc2-c2nn(CCN(CCO)Cc3ccccc3)c3ccc(NCCNCCO)c1c23`, the melting point was 134 to 137 °C. On to `CC(C)(C)OC(=O)N1CC(CC(=O)O)c2ccccc21` (single isomer, unassigned; (+)), for which the melting point is 137 to 138 °C. For `CC(C)SCS(=O)C(C)C` (configuration not stated) the value was 39 to 40 °C; for `NC(=O)CC1Nc2cccc3cccc(c23)S1(=O)=O` (configuration not stated), 195 to 196 °C; for `COc1ccc2c(c1)cc(C(=O)Nc1ccc3c(ccn3C)c1)n2Cc1cccc(C(F)(F)F)c1`, 176 to 177 °C. Under `COc1nnc2c(=O)c3ccccc3ccn12` stands 149 to 150 °C; under `COc1ccc(C=CC(=O)c2c(O)cc(OC)cc2OC(C)C)cc1`, 113 °C.

Regarding `COc1cc(COc2ccc(N)nn2)c2ccccc2c1`, the melting point was in the range of 167 to 170 °C.

As for `COC(=O)[C@@H](OS(=O)(=O)c1ccc(C)cc1)[C@H](O)C1CC1`, the melting point lay in the range of 75 to 78 °C.

`CCSc1nc2cccc(C(=O)O)c2n1Cc1ccc(-c2ccccc2-c2nc(=O)o[nH]2)cc1`: the melting point fell in the range of 146 to 148 °C. Consider `O=C(O)C(O)c1ccccc1Nc1c(Cl)cccc1Cl` (configuration not stated), for which the melting point is 140 to 142 °C. For the compound `Cc1c(NC(=O)c2ccc(OCC3CC3)cc2)ccc2cc(CN3CCC(C)(O)CC3)[nH]c12`, the melting point was 195 °C. `CC(=O)NCC(C)(C)c1ccc(C(=O)Nc2cn3cc(Cl)ccc3n2)cc1` returned a melting point of 220 to 222 °C. `CNc1nc(-c2cccc(NC(=O)c3ccc(S(C)(=O)=O)cc3)c2)c2cc(OC)c(OC)cc2n1`: the melting point was 277 to 279 °C. The compound `C=C(C(=O)OCC)c1cc(-c2cc3c(cc2C)C(C)(C)CCC3(C)C)ccc1OCOC` displayed a melting point of 100 to 101 °C. `Cc1ccc(N2C(=O)C(O)=C(C(=O)c3ccc(C(C)C)cc3)C2c2ccc(N3CCN(C)CC3)cc2)nn1` (configuration not stated): the melting point fell in the range of 198 to 203 °C. `Nc1nc2c(ncn2CCOCP(=O)(O)O)c(=O)[nH]1` came in with a melting point greater than 260 °C. With `Cc1nc(N2CCC(N(C)C)CC2)c2nc(-c3ccccc3)cc-2[nH]1`, the melting point fell in the range of 262 to 263 °C. `Cc1cc(OC(F)F)ccc1NC(=O)c1cccc([N+](=O)[O-])c1C(=O)NC(C)C` had a melting point of 148 to 149 °C. `CC(=O)NC(CCCCCCCCCCCCO)(COC(C)=O)COC(C)=O` gave a melting point of 75 to 76.5 °C. Compound `Nc1cc(=O)n(Cc2cc(Cl)cc(Cl)c2)[nH]1` registered a melting point of 175 to 176 °C. `O=C(O)c1ccc(CCCOCCCCCCBr)s1` came in with a melting point of 93 to 95 °C.

In turn, `O=Cc1cccc(NC(=O)c2ccccc2)c1` displayed a melting point of 122 to 123 °C.

Source of the values: a melting point compilation (Tetko et al.; mined from patent text by program, amines drawn as free bases though some values may be those of a salt).
